From US11292783B2, “Substituted 1,2,3,4-tetrahydroisoquinolines as kappa opioid antagonists” (Research Triangle Institute, priority 2016, dated 2022) come the findings set out here.

Holding throughout (format): biochemical
One assay concerns the target T1, δ opioid receptor (Homo sapiens, UniProt P41143).
T1 construct: expressed in transfected cells
The assay is described as follows: Inhibition of DPDPE-stimulated [35S]GTPγS binding.

The target of the next assay is T2, κ opioid receptor (Homo sapiens, UniProt P41145).
T2 construct: expressed in transfected cells
The assay is described as follows: Inhibition of U69,593-stimulated [35S]GTPγS binding. Conditions: for δ/κ (selectivity for κ relative to δ): ratio of Ke values δ/κ; for δ/κ (selectivity for κ relative to δ) / μ/κ (selectivity for κ relative to μ): fold; for μ/κ (selectivity for κ relative to μ): ratio of Ke values μ/κ.

In a further assay the target is T3, μ opioid receptor (Homo sapiens, UniProt P35372).
T3 construct: expressed in transfected cells
The assay is described as follows: Inhibition of DAMGO-stimulated [35S]GTPγS binding.

Where [1] appears, read: cloned human κ receptor, agonist U69,593, [35S]GTPγS binding, read-out: κ, U69,593 Ke.
Setting [2] is: cloned human δ receptor, agonist DPDPE, [35S]GTPγS binding, read-out: δ, DPDPE Ke.
[3] abbreviates: cloned human μ receptor, agonist DAMGO, [35S]GTPγS binding, read-out: μ, DAMGO Ke.

Read-outs that look alike come from different tables or passages of the source.

T2 sequence (P41145 whole entry): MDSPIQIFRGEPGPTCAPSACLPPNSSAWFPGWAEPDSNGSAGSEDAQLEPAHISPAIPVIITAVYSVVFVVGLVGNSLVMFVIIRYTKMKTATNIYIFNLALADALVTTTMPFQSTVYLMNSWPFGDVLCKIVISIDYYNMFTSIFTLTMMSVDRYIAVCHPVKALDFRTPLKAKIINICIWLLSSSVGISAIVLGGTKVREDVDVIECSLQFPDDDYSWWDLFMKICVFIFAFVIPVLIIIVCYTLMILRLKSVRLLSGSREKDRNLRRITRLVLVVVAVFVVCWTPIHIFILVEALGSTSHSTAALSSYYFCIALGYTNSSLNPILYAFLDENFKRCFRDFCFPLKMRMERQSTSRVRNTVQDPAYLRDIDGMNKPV
T1 sequence (P41143 whole entry): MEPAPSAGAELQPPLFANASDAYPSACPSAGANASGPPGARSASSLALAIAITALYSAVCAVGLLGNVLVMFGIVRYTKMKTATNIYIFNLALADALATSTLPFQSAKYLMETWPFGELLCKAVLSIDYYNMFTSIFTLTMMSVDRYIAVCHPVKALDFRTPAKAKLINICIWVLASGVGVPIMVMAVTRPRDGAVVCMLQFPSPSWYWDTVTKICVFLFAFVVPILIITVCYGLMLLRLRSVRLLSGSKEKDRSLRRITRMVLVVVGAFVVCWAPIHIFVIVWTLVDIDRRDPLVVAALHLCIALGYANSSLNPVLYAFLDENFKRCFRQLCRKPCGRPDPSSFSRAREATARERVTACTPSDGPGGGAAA
T3 sequence (P35372 whole entry): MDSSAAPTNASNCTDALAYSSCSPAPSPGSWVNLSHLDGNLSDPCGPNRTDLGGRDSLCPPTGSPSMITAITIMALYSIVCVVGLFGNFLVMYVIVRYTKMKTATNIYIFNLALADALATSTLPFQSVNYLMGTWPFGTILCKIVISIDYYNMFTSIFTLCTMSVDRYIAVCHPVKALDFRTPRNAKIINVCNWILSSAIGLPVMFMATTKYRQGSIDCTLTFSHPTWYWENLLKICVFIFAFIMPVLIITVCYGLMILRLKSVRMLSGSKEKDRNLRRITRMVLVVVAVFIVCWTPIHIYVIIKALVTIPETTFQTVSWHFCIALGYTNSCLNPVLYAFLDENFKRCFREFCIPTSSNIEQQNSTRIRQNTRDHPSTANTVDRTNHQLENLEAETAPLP

On δ opioid receptor, `CC(C)[C@@H](CN1CCCCC1)NC(=O)[C@H]1Cc2ccc(O)cc2CN1` [Compound 3, (3R)-7-Hydroxy-N-[(1S)-2-methyl-1-(piperidin-1-ylmethyl)propyl]-1,2,3,4-tetrahydroisoquinoline-3-carboxamide] yielded a Kb greater than 3000 nM.

Consider `CC(C)[C@@H](CO)NC(=O)[C@H]1Cc2ccc(O)cc2CN1` [Compound 4, (3R)-7-Hydroxy-N-[(1S)-1-(hydroxymethyl)-2-methylpropyl]-1,2,3,4-tetrahydroisoquinoline-3-carboxamide], for which the “δ/κ (selectivity for κ relative to δ)” value on κ opioid receptor is on record as greater than 76. Moreover, the “μ/κ (selectivity for κ relative to μ)” value on κ opioid receptor is greater than 76. Besides, the Kb at κ opioid receptor (κ, U69,593 Ke, cloned human κ receptor, agonist U69,593, [35S]GTPγS binding) is 39.1 ± 3.8 nM; on δ opioid receptor, greater than 3000 nM; at μ opioid receptor, greater than 3000 nM.

With `CC(C)[C@@H](CN1CCOCC1)NC(=O)[C@H]1Cc2ccc(O)cc2CN1` [Compound 5, (3R)-7-Hydroxy-N-[(1S)-2-methyl-1-(morpholin-4-ylmethyl)propyl]-1,2,3,4-tetrahydroisoquinoline-3-carboxamide], at κ opioid receptor (setting [1]), the Kb was found to be 396 ± 140 nM.

For `CC(C)[C@@H](CN1CCC(C)(C)CC1)NC(=O)[C@H]1Cc2ccc(O)cc2CN1` [Compound 9, (3R)—N-{(1S)-1-[(4,4-Dimethylpiperidin-1-yl)methyl]-2-methylpropyl}-7-hydroxy-1,2,3,4-tetrahydroisoquinoline-3-carboxamide], the Kb worked out at 2.09 ± 0.42 nM on κ opioid receptor (setting [1]), 847 nM on δ opioid receptor (setting [2]) and 142 nM at μ opioid receptor (setting [3]). The “δ/κ (selectivity for κ relative to δ)” value on κ opioid receptor worked out at 405. For the same molecule, on κ opioid receptor, the “μ/κ (selectivity for κ relative to μ)” value worked out at 68.

In the case of `CC(C)CN(CC(C)C)C[C@@H](NC(=O)[C@H]1Cc2ccc(O)cc2CN1)C(C)C` [Compound 10, (3R)—N-{(1S)-1-{[Bis(2-methylpropyl)amino]methyl}-2-methylpropyl]-7-hydroxy-1,2,3,4-tetrahydroisoquinoline-3-carboxamide], the Kb at κ opioid receptor (setting [1]) turned out to be 137 ± 24 nM.

As to `CCN(CC)C[C@@H](NC(=O)[C@H]1Cc2ccc(O)cc2CN1)C(C)C` [Compound 11, (3R)—N-{(1S)-1-[(4,4-Diethylamino)methyl]-2-methylpropyl]-7-hydroxy-1,2,3,4-tetrahydroisoquinoline-3-carboxamide], the “κ, U69,593 Ke” value at κ opioid receptor (cloned human κ receptor, agonist U69,593, [35S]GTPγS binding) worked out at 41.8 ± 12 nM. In addition, at κ opioid receptor, the “δ/κ (selectivity for κ relative to δ)” value is greater than 72 and the “μ/κ (selectivity for κ relative to μ)” value came to 16.5. Further, at δ opioid receptor (setting [2]), the Kb is reported as greater than 3000 nM. Besides, at μ opioid receptor (cloned human μ receptor, agonist DAMGO, [35S]GTPγS binding), the “μ, DAMGO Ke” value was found to be 690 ± 110 nM.

Consider `CC(C)[C@@H](CN1CCCCC1C)NC(=O)[C@H]1Cc2ccc(O)cc2CN1` (stereo partly drawn) [Compound 12, (3R)-7-Hydroxy-N-{(1S)-2-methyl-1-[(2-methylpiperidin-1-yl)methyl]propyl}-1,2,3,4-tetrahydroisoquinoline-3-carboxamide], for which the Kb on κ opioid receptor (setting [1]) is 15.1 ± 4.2 nM; on μ opioid receptor (setting [3]), 44.9 ± 11 nM. For the same molecule, the “δ/κ (selectivity for κ relative to δ)” value on κ opioid receptor is listed as 199. The “μ/κ (selectivity for κ relative to μ)” value at κ opioid receptor came to 3.

Regarding `COC1CCN(C[C@@H](NC(=O)[C@H]2Cc3ccc(O)cc3CN2)C(C)C)CC1` [Compound 13, (3R)-7-Hydroxy-N-{(1S)-2-methyl-1-[(4-methoxypiperidin-1-yl)methyl]propyl}-1,2,3,4-tetrahydroisoquinoline-3-carboxamide], the Kb on κ opioid receptor (setting [1]) was determined as 6.53 ± 1.8 nM; at μ opioid receptor (setting [3]), 198 ± 48 nM. Also, at κ opioid receptor, the “δ/κ (selectivity for κ relative to δ)” value is recorded as greater than 459. Further, on κ opioid receptor, the “μ/κ (selectivity for κ relative to μ)” value was found to be 30.

Regarding `CC(C)[C@@H](CN1CCC(C(F)(F)F)CC1)NC(=O)[C@H]1Cc2ccc(O)cc2CN1` [Compound 14, (3R)-7-Hydroxy-N-[(1S)-2-methyl-1-{[4-(trifluoromethyl)piperidin-1-yl]methyl}propyl]-1,2,3,4-tetrahydroisoquinoline-3-carboxamide], on κ opioid receptor (setting [1]), the Kb came out at 4.69 ± 0.29 nM. Further, on κ opioid receptor, the “δ/κ (selectivity for κ relative to δ)” value was greater than 640 and the “μ/κ (selectivity for κ relative to μ)” value was found to be 14. For the same molecule, the Kb on μ opioid receptor (setting [3]) worked out at 67.9 ± 12 nM.

Consider `CC(C)[C@@H](CN1CCN(C)CC1)NC(=O)[C@H]1Cc2ccc(O)cc2CN1` [Compound 19, (3R)-7-Hydroxy-N-{(1S)-2-methyl-1-[(4-methylpiperizin-1-yl)methyl]propyl}-1,2,3,4-tetrahydroisoquinoline-3-carboxamide], for which, at κ opioid receptor (setting [1]), the Kb came to 98.8 ± 28 nM. On κ opioid receptor, the “δ/κ (selectivity for κ relative to δ)” value is recorded as greater than 333 and the “μ/κ (selectivity for κ relative to μ)” value is 9. Besides, the Kb on μ opioid receptor (setting [3]) is 915 ± 303 nM.

For `CC(C)[C@@H](CN1CCC(C(N)=O)CC1)NC(=O)[C@H]1Cc2ccc(O)cc2CN1` [Compound 22], at κ opioid receptor (setting [1]), the Kb stood at 3.22 ± 0.78 nM. Moreover, at κ opioid receptor, the “δ/κ (selectivity for κ relative to δ)” value was determined as 932 and the “μ/κ (selectivity for κ relative to μ)” value is 43. Besides, the Kb at μ opioid receptor (setting [3]) was 129 ± 26 nM.

As to `CCC1CCN(C[C@@H](NC(=O)[C@H]2Cc3ccc(O)cc3CN2)C(C)C)CC1` [Compound 24, (3R)—N-{(1S)-1-[(4-Ethylpiperidin-1-yl)methyl]-2-methylpropyl}-7-hydroxy-1,2,3,4-tetrahydroisoquinoline-3-carboxamide], the values for the Kb at κ opioid receptor (setting [1]), at δ opioid receptor (setting [2]) and on μ opioid receptor (setting [3]) were 2.48 ± 0.7 nM, 2490 ± 620 nM and 74.8 ± 23 nM, respectively. Moreover, the “δ/κ (selectivity for κ relative to δ)” value at κ opioid receptor came to 1004. Moreover, the “μ/κ (selectivity for κ relative to μ)” value on κ opioid receptor turned out to be 30.

For `CC1CCN(C[C@H](C(C)C)N(C)C(=O)[C@H]2Cc3ccc(O)cc3CN2)CC1` [Compound 30, (3R)-7-Hydroxy-N-methyl-N-{(1S)-2-methyl-1-[(4-methylpiperidin-1-yl)methyl]propyl}-1,2,3,4-tetrahydroisoquinoline-3-carboxamide], the Kb at κ opioid receptor (setting [1]) is 88.4 ± 17 nM; at δ opioid receptor (setting [2]) it was greater than 3000 nM; at μ opioid receptor, 406 ± 86 nM. Moreover, the “δ/κ (selectivity for κ relative to δ)” value on κ opioid receptor turned out to be 34. Further, the “μ/κ (selectivity for κ relative to μ)” value at κ opioid receptor is on record as 4.6.

On to `CC(C)[C@@H](CN1CCC(C#N)CC1)NC(=O)[C@H]1Cc2ccc(O)cc2CN1` [Compound 39, (3R)—N-{(1S)-1-[(4-Cyanopiperidin-1-yl)methyl]-2-methylprolyl}-7-hydroxy-1,2,3,4-tetrahydroisoquinoline-3-carboxamide], for which the Kb at κ opioid receptor (setting [1]) came to 12.7 ± 3.1 nM; at μ opioid receptor (setting [3]) it was 647 ± 150 nM. The “δ/κ (selectivity for κ relative to δ)” value at κ opioid receptor was greater than 236. Also, on κ opioid receptor, the “μ/κ (selectivity for κ relative to μ)” value worked out at 51.

`CC(C)[C@@H](CC1CCCC1)NC(=O)[C@H]1Cc2ccc(O)cc2CN1` [Compound 40, (3R)—N-[(1R)-1-(Cyclopentylmethyl)-2-methylpropyl]-7-hydroxy-1,2,3,4-tetrahydroisoquinoline-3-carboxamide]: the Kb on δ opioid receptor (setting [2]) worked out at 1570 ± 380 nM; on μ opioid receptor (setting [3]) it was 344 ± 100 nM.

Consider `CC1CCN(C[C@H](C(C)C)N(C)C[C@H]2Cc3ccc(O)cc3CN2)CC1` [Compound 53, (3R)-3-[(Methyl{(1S)-2-methyl-1-[(4-methylpiperidin-1-yl)methyl]propyl}amino)methyl]-1,2,3,4-tetrahydroisoquinolin-7-ol], for which the Kb at κ opioid receptor (setting [1]) was 18.4 ± 2 nM; at δ opioid receptor (setting [2]), greater than 3000 nM; at μ opioid receptor, 647 ± 150 nM. Besides, at κ opioid receptor, the “δ/κ (selectivity for κ relative to δ)” value is greater than 163. At κ opioid receptor, the “μ/κ (selectivity for κ relative to μ)” value was 35.

For the molecule `CC(C)[C@@H](CN1CCC(F)(F)CC1)NC(=O)[C@H]1Cc2ccc(O)cc2CN1` [Compound 54, (3R)—N-{[(1S)-1-[4,4-Difluoropiperidin-1-yl]methyl]-2-methylpropyl}-7-hydroxy-1,2,3,4-tetrahydroisoquinoline-3-carboxamide], the Kb at κ opioid receptor (setting [1]) stood at 11.8 ± 3 nM. On κ opioid receptor, the “δ/κ (selectivity for κ relative to δ)” value is greater than 254 and the “μ/κ (selectivity for κ relative to μ)” value stood at 51. The Kb at μ opioid receptor (setting [3]) stood at 604 ± 83 nM.

`O=C(NCCc1ccccc1)[C@H]1Cc2ccc(O)cc2CN1` [Compound 56, (3R)-7-Hydroxy-N-(2-phenylethyl)-1,2,3,4-tetrahydroisoquinoline-3-carboxamide]: the Kb at δ opioid receptor (setting [2]) is greater than 3000 nM; on μ opioid receptor, 277 ± 77 nM.

Turning to `CC(C)[C@@H](CN1CCC(N(C)C)CC1)NC(=O)[C@H]1Cc2ccc(O)cc2CN1` [Compound 58, (3R)—N-[(1S)-1-{[4-(Dimethylamino)piperidin-1-yl]methyl}-2-methylpropyl]-7-hydroxy-1,2,3,4-tetrahydroisoquinoline-3-carboxamide], at κ opioid receptor (setting [1]), the Kb was determined as 8.08 ± 1.2 nM. Also, at κ opioid receptor, the “δ/κ (selectivity for κ relative to δ)” value is greater than 371 and the “μ/κ (selectivity for κ relative to μ)” value stood at 39. Also, at μ opioid receptor (setting [3]), the Kb was 318 ± 8.4 nM.

Consider `CC(C)[C@@H](CN1CCC(C(F)F)CC1)NC(=O)[C@H]1Cc2ccc(O)cc2CN1` [Compound 59, (3R)—N-[(1S)-1-{[4-(Difluoromethyl)piperidin-1-yl]methyl}-2-methylpropyl]-7-hydroxy-1,2,3,4-tetrahydroisoquinoline-3-carboxamide], for which the values for the Kb at κ opioid receptor (setting [1]) and at μ opioid receptor (setting [3]) were 3.45 ± 1.2 nM and 70.9 ± 9.4 nM, respectively.

On to `CC1CCC(C[C@@H](NC(=O)[C@H]2Cc3ccc(O)cc3CN2)C(C)C)CC1` (stereo partly drawn) [Compound 66, (3R)-7-Hydroxy-N-{(1R)-2-methyl-1-[(4-methylcyclohexyl)methyl]propyl}-1,2,3,4-tetrahydroisoquinoline-3-carboxamide], for which the Kb at μ opioid receptor (setting [3]) was 221 ± 41 nM.
